According to paper PMC6718736, “Validation of in vitro methods for human cytochrome P450 enzyme induction: Outcome of a multi-laboratory study” (Toxicology in Vitro, 2019):
Read-outs that look alike come from different tables or passages of the source.

Legend:
[1] = cited from earlier work
CYP3A4 [2] = assay: CYP3A4 enzyme induction assay in cryopreserved primary human hepatocytes (PHH); conditions: for Assigned classification CYP3A4: PHH
CYP3A4 [3] = conditions: cited from earlier work
CYP1A2 = CYP1A2 enzyme induction assay in cryopreserved primary human hepatocytes (PHH); type: in vitro ADME; conditions: for Prediction in vivo inducer: Cmax/F2 >0.5 criterion; for Assigned classification CYP1A2: PHH;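 as to Assigned classification CYP1A2: code 1 means positive inducer and 0 means non-inducer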
CYP = CYP isoforms induced; ref Abadie et al. (2009), Richert et al. (2010), Preissner et al. (2010), Hoffmann et al. (2014); cited from earlier work
CYP2B6 [4] = assay: CYP2B6 enzyme induction assay in cryopreserved primary human hepatocytes (PHH); type: in vitro ADME; conditions: for Assigned classification CYP2B6: PHH;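 as to Assigned classification CYP2B6: code 1 means positive inducer and 0 means non-inducer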
[5] = Solubility by visual inspection (DMSO stock solution and assay medium); type: physicochemical; conditions: assay medium
Description: The SOPs relied on visual inspection for solubility observation. […] The absence of precipitation in the medium was checked pre- and post-incubation (24 hours) by centrifugation of the sample and observation of any precipitation (pellet residue).

[6] = Solubility by nephelometry (EURL ECVAM); type: physicochemical
Excerpt: In addition to the visual inspection performed by the validation laboratories as described in the SOP, EURL ECVAM introduced nephelometry for systematic solubility determination of the 13 validation set chemicals. Nephelometry uses a laser beam and the principle of Tyndall effect light scatter to detect turbidity due to insolubility. The nephelometer method used formazin as reference item (1, 5, 10 and 20 nephelometric turbidity units (NTU)) to calculate the relative turbidity (RTU) of the validation set of chemicals. To the naked eye, 20 NTU is perceptible, while the nephelometer was sensitive to 5 NTU, with 1 NTU equivalent to background (solvent/medium blank).

CYP2B6 [7] = conditions: cited from earlier work
[8] = human in vivo, CYP named without remark = induced, ref references in the cell, Washington University database, Hoffmann et al. (2014), Pelkonen et al. (2008), Hukkanen et al. (2012)

- F2 (CYP3A4 [2]; CYP3A4, PHH): 14.1 µM
- Induction in vitro (CYP3A4 [2]; CYP3A4, PHH): Yes
- Prediction in vivo inducer (CYP3A4 [2]; CYP3A4, PHH): Yes
- Assigned classification CYP3A4 (CYP3A4 [2]; Lab 1, batch 0 6 A): 1
- Assigned classification CYP3A4 (CYP3A4 [2]; Lab 1, batch 4 0 8): 1
- Assigned classification CYP3A4 (CYP3A4 [2]; Lab 1, batch 8 0 8): 1
- Assigned classification CYP3A4 (CYP3A4 [2]; Lab 2, batch 0 6 A): 1
- Assigned classification CYP3A4 (CYP3A4 [2]; Lab 2, batch 4 0 8): 1
- Assigned classification CYP3A4 (CYP3A4 [2]; Lab 2, batch 8 0 8): 1
- Assigned classification CYP3A4 (CYP3A4 [2]; Lab 3, batch 0 6 A): 1
- Assigned classification CYP3A4 (CYP3A4 [2]; Lab 3, batch 4 0 8): 1
- Assigned classification CYP3A4 (CYP3A4 [2]; Lab 3, batch 8 0 8): 1
- Prediction in vivo inducer (CYP1A2; CYP1A2, PHH): No
- Prediction in vivo inducer (CYP1A2; CYP1A2, PHH, listed as efavirenz): non-inducers
- Induction in vitro (CYP1A2; CYP1A2, PHH, positive in one donor in each of the three laboratories): No
- Assigned classification CYP1A2 (CYP1A2; Lab 1, batch 0 6 A): 0
- Assigned classification CYP1A2 (CYP1A2; Lab 1, batch 4 0 8): 0
- Assigned classification CYP1A2 (CYP1A2; Lab 1, batch 8 0 8): 0
- Assigned classification CYP1A2 (CYP1A2; Lab 2, batch 0 6 A): 0
- Assigned classification CYP1A2 (CYP1A2; Lab 2, batch 4 0 8): 0
- Assigned classification CYP1A2 (CYP1A2; Lab 2, batch 8 0 8): 0
- Assigned classification CYP1A2 (CYP1A2; Lab 3, batch 0 6 A): 0
- Assigned classification CYP1A2 (CYP1A2; Lab 3, batch 4 0 8): 0
- Assigned classification CYP1A2 (CYP1A2; Lab 3, batch 8 0 8): 0
- F2 (CYP2B6 [4]; CYP2B6, PHH): 4.69 µM
- Induction in vitro (CYP2B6 [4]; CYP2B6, PHH): Yes
- Prediction in vivo inducer (CYP2B6 [4]; CYP2B6, PHH): Yes
- Prediction in vivo inducer (CYP2B6 [4]; CYP2B6, PHH, Cmax/F2 >0.5 criterion): positive
- Assigned classification CYP2B6 (CYP2B6 [4]; Lab 1, batch 0 6 A): 1
- Assigned classification CYP2B6 (CYP2B6 [4]; Lab 1, batch 4 0 8): 1
- Assigned classification CYP2B6 (CYP2B6 [4]; Lab 1, batch 8 0 8): 1
- Assigned classification CYP2B6 (CYP2B6 [4]; Lab 2, batch 0 6 A): 1
- Assigned classification CYP2B6 (CYP2B6 [4]; Lab 2, batch 4 0 8): 1
- Assigned classification CYP2B6 (CYP2B6 [4]; Lab 2, batch 8 0 8): 0
- Assigned classification CYP2B6 (CYP2B6 [4]; Lab 3, batch 0 6 A): 1
- Assigned classification CYP2B6 (CYP2B6 [4]; Lab 3, batch 4 0 8): 0
- Assigned classification CYP2B6 (CYP2B6 [4]; Lab 3, batch 8 0 8): 0
- HepaRG medium stability ([5]; Lab 1, visual observation): 20 µg/mL
- HepaRG medium stability ([5]; Lab 2, visual observation): 40 µg/mL
- HepaRG medium stability ([5]; Lab 3, visual observation): 40 µg/mL
- PHH medium stability ([5]; Lab 4, visual observation): 40 µg/mL
- PHH medium stability ([5]; Lab 5, visual observation): 40 µg/mL
- PHH medium stability ([5]; Lab 6, visual observation): 40 µg/mL
- nephelometry finding in assay medium ([6]; 40 μg/ml, the two media): insoluble suspensions
- HepaRG medium stability ([6]; ECVAM nephelometry, HepaRG medium, ^2 = solubility limit): 20 µg/mL
- PHH medium stability ([6]; ECVAM nephelometry, ^2 = solubility limit): 40^2 μg/mL
- PHH medium stability ([6]; ECVAM nephelometry, ^2 = solubility limit, listed as efavirenz): 40 µg/mL
SMILES: O=C1Nc2ccc(Cl)cc2[C@@](C#CC2CC2)(C(F)(F)F)O1 [Efavirenz]
- Cmax ([1]; human in vivo plasma concentration, normal dose): 9.1 to 12.6 µM
- Cmax ([1]; human in vivo, normal dose (Table 10)): 9.1 to 12.6 µM
- Induction in vivo (CYP3A4 [3]; CYP3A4, human in vivo reference classification (Table 12)): Yes
- CYP induction in vivo literature reference: CYP3A4 (CYP3A4 [3]; [8]): CYP3A4
- CYP induction in vitro (human hepatocytes) (CYP): CYP2B6, CYP3A4
- Induction in vivo (CYP2B6 [7]; CYP2B6, human in vivo reference classification): Yes
- CYP induction in vivo literature reference: CYP2B6 (CYP2B6 [7]; [8]): CYP2B6
